Earlier results, collected in patent publication US20120142645A1, “NEUROACTIVE STEROID COMPOSITIONS AND METHODS OF USE FOR LOWERING CHOLESTEROL” (priority 2009, published 2012).

System: acute moderate to severe traumatic brain injury
Conditions: intravenous for three days; Wright et al., 2007; cited from earlier work

Compound: CC(=O)[C@H]1CC[C@H]2[C@@H]3CCC4=CC(=O)CC[C@]4(C)[C@H]3CC[C@]12C [progesterone]
- Reduction of 30-day mortality rates: over 50%
